Measured values: patent US4570006A, “Amidine compound, process for producing same and anti-complement agent comprising same” (Torii & Co. Ltd., priority 1981, dated 1986)
pIC50: −log10 of the molar value.

Legend:
Masugi nephritis = assay: Therapeutic experiment on Masugi's nephritis (protein content of urine); format: in vivo; conditions: rats; for Percentage inhibition (decrease in protein content of urine): methanesulfonate, oral 100 mg/kg twice a day, eight days
From the text: The protein content of the animal's urine is used as the parameter for the progress of Masugi nephritis. […] From the result, it may be said that the compound of this invention having a Cl-esterase inhibitory activity is useful as a remedy for the glomerulonephritis and is also useful as a remedy for autoimmune diseases inclusive of glomerulonephritis.
Experimental nephritis were induced in rats by intravenous injection of nephrotoxin prepared according to the method of Shibata et al. ["Experimental Immunoallergy.", p. 664 (1971), Bunkodo, Tokyo]. Each member of the medicine administered group had been orally administered with methanesulfonate of Compound No. 69 at a dose rate of 100 mg/kg body weight, twice a day, for eight consecutive days. On the second day from the beginning of medicine administration, nephrotoxin was intravenously administered. The effectiveness was evaluated by determining the difference in protein content of urine between the nephritic group (control group) and the medicine administered group on the 6th day (5th day after the administration of nephrotoxin) and 9th day from the beginning of medicine administration.
The percentage inhibition indicates the degree of decrease in protein content of urine of the medicine administered group as compared with the control group.

Plasmin = Plasmin (Homo sapiens, UniProt P00747); assay: Anti-plasmin activity (inhibition of TAME hydrolysis); format: biochemical; conditions: read-out: ID50, plasmin
Sequence of Plasmin (P00747 581-810 limits assumed, species assumed): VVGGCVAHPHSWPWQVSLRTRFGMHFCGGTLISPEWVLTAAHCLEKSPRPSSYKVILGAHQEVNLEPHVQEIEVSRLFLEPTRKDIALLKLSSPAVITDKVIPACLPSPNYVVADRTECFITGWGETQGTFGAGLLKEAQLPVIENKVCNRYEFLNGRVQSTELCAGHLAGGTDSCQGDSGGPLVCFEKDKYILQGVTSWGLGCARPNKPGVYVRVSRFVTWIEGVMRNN
Sequence of Plasmin (P00747 97-580 limits assumed, species assumed): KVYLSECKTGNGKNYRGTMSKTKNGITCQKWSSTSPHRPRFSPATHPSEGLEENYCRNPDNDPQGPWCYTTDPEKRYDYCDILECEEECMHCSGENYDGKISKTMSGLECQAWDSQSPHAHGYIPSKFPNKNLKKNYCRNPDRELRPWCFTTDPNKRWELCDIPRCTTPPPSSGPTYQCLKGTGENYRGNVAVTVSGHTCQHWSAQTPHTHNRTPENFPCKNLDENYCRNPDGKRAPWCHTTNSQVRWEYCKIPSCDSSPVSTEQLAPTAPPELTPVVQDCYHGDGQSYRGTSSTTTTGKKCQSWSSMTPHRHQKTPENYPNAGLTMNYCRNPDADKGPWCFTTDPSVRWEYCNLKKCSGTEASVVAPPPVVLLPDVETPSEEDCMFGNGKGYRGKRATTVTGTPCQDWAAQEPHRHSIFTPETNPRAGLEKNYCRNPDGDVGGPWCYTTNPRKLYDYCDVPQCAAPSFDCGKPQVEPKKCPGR
In short: (§1)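 Inhibition of enzymatic TAME (tosylarginine methyl ester) hydrolysis, per Muramatsu et al. Values are ID50, the molar concentration of compound inhibiting 50% of each enzyme's TAME-hydrolysing activity.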

Kallikrein = assay: Anti-kallikrein activity (inhibition of TAME hydrolysis); format: biochemical; conditions: read-out: ID50, kallikrein
In short: as §1

Cls = molecular target: T1, Cls (Homo sapiens, UniProt P09871); assay: Anti-Cl esterase activity, Cls (ATEE hydrolysis); format: biochemical; conditions: hydrolysis of ATEE; read-out: Anti-Cl activity, Cls (50% inhibition)
T1 sequence (P09871 438-688 limits assumed): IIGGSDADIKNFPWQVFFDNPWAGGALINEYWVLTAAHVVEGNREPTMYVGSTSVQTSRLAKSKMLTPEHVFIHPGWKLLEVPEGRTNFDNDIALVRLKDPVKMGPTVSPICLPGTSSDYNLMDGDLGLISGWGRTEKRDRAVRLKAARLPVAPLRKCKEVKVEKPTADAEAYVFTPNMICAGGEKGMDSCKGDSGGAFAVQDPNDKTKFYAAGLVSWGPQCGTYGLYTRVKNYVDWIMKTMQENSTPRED
T1 sequence (P09871 16-437 limits assumed): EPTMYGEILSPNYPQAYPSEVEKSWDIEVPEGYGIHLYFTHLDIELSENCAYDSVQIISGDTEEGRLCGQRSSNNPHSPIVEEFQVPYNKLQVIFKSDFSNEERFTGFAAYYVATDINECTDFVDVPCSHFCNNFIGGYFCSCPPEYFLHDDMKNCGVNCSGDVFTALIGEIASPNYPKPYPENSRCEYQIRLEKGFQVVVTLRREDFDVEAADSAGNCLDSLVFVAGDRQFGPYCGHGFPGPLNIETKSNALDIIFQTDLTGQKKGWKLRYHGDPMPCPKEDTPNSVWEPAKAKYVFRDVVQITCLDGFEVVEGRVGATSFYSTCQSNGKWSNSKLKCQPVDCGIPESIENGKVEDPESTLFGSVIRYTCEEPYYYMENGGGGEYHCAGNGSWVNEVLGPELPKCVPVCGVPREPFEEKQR
Protocol: The anti-Cl esterase (Clr, Cls) activity was determined according to the method of Okamura et al. [K. Okamura, M. Muramatsu and B. Fujii, Biochem. Biophys. […] The figures in Table 2 have the following meanings:
Cls: Molar concentration of the test compound which inhibits 50% of the ability of Cls to hydrolyse ATEE (acetyltyrosin ethyl ester).

Trypsin = molecular target: T2, Trypsin (Bos taurus, UniProt P00760); assay: Anti-trypsin activity (inhibition of TAME hydrolysis); format: biochemical; conditions: read-out: ID50, trypsin
T2 sequence (P00760 24-246): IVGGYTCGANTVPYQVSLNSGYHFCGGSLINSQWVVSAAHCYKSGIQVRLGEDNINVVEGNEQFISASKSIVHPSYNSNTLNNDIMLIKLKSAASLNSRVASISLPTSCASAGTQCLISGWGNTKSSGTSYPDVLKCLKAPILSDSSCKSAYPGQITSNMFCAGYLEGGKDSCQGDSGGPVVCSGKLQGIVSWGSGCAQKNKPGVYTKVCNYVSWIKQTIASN
In short: as §1

[1] = Toxicity, median lethal dose (LD50); conditions: in vivo
Clr = molecular target: T3, Clr (Homo sapiens, UniProt P00736); assay: Anti-Cl esterase activity, Clr (AAME hydrolysis); format: biochemical; conditions: hydrolysis of AAME; read-out: Anti-Cl activity, Clr (ID50)
T3 sequence (P00736 464-705 limits assumed): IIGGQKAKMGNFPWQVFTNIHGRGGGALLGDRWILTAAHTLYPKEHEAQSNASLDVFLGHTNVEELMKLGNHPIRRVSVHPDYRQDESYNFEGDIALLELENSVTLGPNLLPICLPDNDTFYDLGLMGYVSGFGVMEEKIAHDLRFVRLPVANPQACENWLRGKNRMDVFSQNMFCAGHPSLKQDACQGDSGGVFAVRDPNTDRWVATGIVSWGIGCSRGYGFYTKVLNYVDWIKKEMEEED
T3 sequence (P00736 18-463 limits assumed): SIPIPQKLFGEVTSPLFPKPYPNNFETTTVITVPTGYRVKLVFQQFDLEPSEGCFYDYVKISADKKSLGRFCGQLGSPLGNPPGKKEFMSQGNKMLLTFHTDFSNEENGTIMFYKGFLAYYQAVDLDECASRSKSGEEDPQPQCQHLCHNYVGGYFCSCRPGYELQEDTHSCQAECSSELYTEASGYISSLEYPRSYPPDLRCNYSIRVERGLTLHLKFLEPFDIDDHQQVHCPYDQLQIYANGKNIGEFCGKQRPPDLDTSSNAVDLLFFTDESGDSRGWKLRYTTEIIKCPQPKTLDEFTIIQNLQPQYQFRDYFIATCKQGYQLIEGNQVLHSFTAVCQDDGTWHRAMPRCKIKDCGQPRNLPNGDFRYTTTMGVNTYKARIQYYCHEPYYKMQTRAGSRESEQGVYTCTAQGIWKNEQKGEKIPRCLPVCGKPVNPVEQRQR
Protocol: The anti-Cl esterase ([…]) activity was determined according to the method of Okamura et al. [K. Okamura, M. Muramatsu and B. Fujii, Biochem. Biophys.

Thrombin = Thrombin (Homo sapiens, UniProt P00734); assay: biochemical; conditions: TAME hydrolysis; read-out: ID50, thrombin
complement = assay: Inhibition of complement mediated hemolysis; format: cell-based

Row | SMILES | Percentage inhibition (decrease in protein content of urine) (Masugi nephritis; 5th day) [%] | Percentage inhibition (decrease in protein content of urine) (Masugi nephritis; 8th day) [%] | protein content of urine, Masugi nephritis (Masugi nephritis; result in words) | pIC50 (Plasmin) | pIC50 (Kallikrein) | pIC50 (Cls) | pIC50 (Trypsin) | LD50 ([1]; ip) [mg/kg] | LD50 ([1]; po) [mg/kg] | pIC50 (Clr) | pIC50 (Thrombin) | Inhibition of complement mediated hemolysis (%) (complement; compound at 1 × 10^-4) | Inhibition of complement mediated hemolysis (%) (complement; compound at 1 × 10^-5) | Inhibition of complement mediated hemolysis (%) (complement; compound at 1 × 10^-6) | Inhibition of complement mediated hemolysis (%) (complement; compound at 1 × 10^-7)
1 | N=C(N)Nc1ccc(C(=O)Oc2ccc(C(=N)N)cc2C(=O)c2ccccc2)cc1 [Compound 69, 4-amidino-2-benzoylphenyl 4-guanidinobenzoate] | 81 | 39 | distinctly decreased the protein content of urine | 5.70 | 6.40 | 6.40 | 7.10 | 192 | 1700 | 5.70 | 6.70 | 100 | 99.6 | 86.5 | 7.2
2 | N=C(N)Nc1ccc(C(=O)Oc2ccc(C(=N)N)cc2[N+](=O)[O-])cc1 [Compound 70, 4-amidino-2-nitrophenyl 4-guanidinobenzoate] | – | – | – | 6.15 | 4.40 | 6.70 | 7.52 | 200 | 2500 | 5.52 | 6.30 | 100 | 100 | 97.0 | 46.1
3 | N=C(N)c1ccc(OC(=O)c2ccccc2)c(Cl)c1 [Compound 26, 4-amidino-2-chlorophenyl benzoate] | – | – | – | 6.40 | 5.70 | 6.52 | 6.40 | – | – | 6.70 | 7.22 | 100.0 | 99.4 | 61.6 | 16.7
4 | N=C(N)c1ccc(OC(=O)c2ccc(CNC(=O)OCc3ccccc3)cc2)c([N+](=O)[O-])c1 [Compound 61] | – | – | – | 6.70 | 6.00 | 6.52 | 6.70 | – | – | 6.40 | 6.40 | 98.6 | 100 | 98.0 | 76.1
5 | COc1cc(C(=N)N)ccc1OC(=O)c1ccc(CNC(=O)OCc2ccccc2)cc1 [Compound 57, 4-amidino-2-methoxyphenyl 4-benzyloxycarbonylaminomethylbenzoate] | – | – | – | 6.70 | 5.52 | 5.70 | 5.70 | – | – | < 5.00 | 5.10 | 70.5 | 14.8 | 2.3 | 0
6 | N=C(N)c1ccc(OC(=O)c2ccc(C=O)cc2)c(C(=O)c2ccccc2)c1 [Compound 52] | – | – | – | 6.70 | < 5.00 | 5.52 | 5.52 | – | – | 5.30 | 7.05 | 100 | 98.8 | 75.4 | 12.8
7 | COC(=O)c1cc(C(=N)N)ccc1OC(=O)c1ccc(CN)cc1 [Compound 60] | – | – | – | 5.40 | 5.70 | 6.10 | 6.00 | – | – | 5.52 | < 5.00 | 100 | 100 | 89.8 | 44.4
8 | N=C(N)c1ccc(OC(=O)c2ccc(O)cc2)c(C(=O)c2ccccc2)c1 [Compound 46, 4-amidino-2-benzoylphenyl 4-hydroxybenzoate] | – | – | – | 6.22 | 6.52 | 7.05 | 7.30 | – | – | 5.70 | 7.40 | 100 | 98.0 | 67.6 | 5.0
9 | COc1cc(C(=N)N)ccc1OC(=O)c1ccc(C)cc1 [Compound 35] | – | – | – | 5.30 | < 5.00 | 6.52 | 6.00 | – | – | 6.40 | 5.52 | 88.8 | 43.9 | 29.9 | 11.8
